Source: PubChem BioAssay (NCI)
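GI50 is the concentration that inhibits growth by half. TGI denotes the concentration required for complete inhibition of growth.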

How the values were obtained:
Experiment in all cases: growth of human tumour cells (NCI), 384-well format
OVCAR-4 ovarian = test system: OVCAR-4 ovarian
SF-268 CNS = test system: SF-268 CNS
OVCAR-5 ovarian = test system: OVCAR-5 ovarian
SF-539 CNS = test system: SF-539 CNS
LOX IMVI melanoma = test system: LOX IMVI melanoma
SN12C renal = test system: SN12C renal
MDA-MB-231 breast = test system: MDA-MB-231 breast
U251 glioblastoma = test system: U251 glioblastoma
SK-MEL-5 melanoma = test system: SK-MEL-5 melanoma
786-0 renal = test system: 786-0 renal
K-562 leukemia = test system: K-562 leukemia
NCI-H23 lung = test system: NCI-H23 lung
CCRF-CEM leukemia = test system: CCRF-CEM leukemia

Q: Which results are given for `Cn1cc(-c2ccc3c(c2)CCN3C(=O)Cc2cccc(C(F)(F)F)c2)c2c(N)ncnc21`?
A: GI50 (OVCAR-4 ovarian): 11.2 µM; TGI (OVCAR-4 ovarian): 25.1 µM; GI50 (SF-268 CNS): 9.26 µM; TGI (SF-268 CNS): 23.8 µM; GI50 (OVCAR-5 ovarian): 15.4 µM; TGI (OVCAR-5 ovarian): 29 µM; GI50 (SF-539 CNS): 6.09 µM; TGI (SF-539 CNS): 19.2 µM; GI50 (LOX IMVI melanoma): 5.67 µM; TGI (LOX IMVI melanoma): 18.2 µM; GI50 (SN12C renal): 1.36 µM; TGI (SN12C renal): 8.59 µM; GI50 (MDA-MB-231 breast): 4.91 µM; TGI (MDA-MB-231 breast): 15.6 µM; GI50 (U251 glioblastoma): 9.54 µM; TGI (U251 glioblastoma): 39.4 µM; GI50 (SK-MEL-5 melanoma): 3.86 µM; TGI (SK-MEL-5 melanoma): 9.56 µM; GI50 ([…]-0 renal): 3.99 µM; TGI (786-0 renal): 16.2 µM; GI50 (K-562 leukemia): 2.55 µM; TGI (K-562 leukemia): 11.4 µM; GI50 (NCI-H23 lung): 4.28 µM; TGI (NCI-H23 lung): 15.9 µM; GI50 (CCRF-CEM leukemia): 2.75 µM; TGI (CCRF-CEM leukemia): 7.98 µM
